# Laboratory results as given in patent US20160311795A1, “PYRIMIDINE DIAMINE DERIVATIVES AS INHIBITORS OF CYTOSOLIC HSP90” (CALASIA PHARMACEUTICALS, INC., priority 2012, published 2016).
# Like-named read-outs stand apart in the source and are kept apart here.
# Target: T1, human full length Hsp90 (Homo sapiens, UniProt P07900)
# T1 construct: amino acid residues 1 to 732 of human Hsp90 (GenBank: BC121062.2); made in house; host or cells: E. coli BL21DE3 (pET15b)
# Assay: Fluorescence polarization Hsp90 competitive binding assay (GM-FITC displacement)
# Settings: for inhibition at 10 µM: compound at 10 μM, read-out: Biochemical Potency % Inhibition at 10 μM; for inhibition at 1 µM: compound at 1 μM, read-out: Biochemical Potency % Inhibition at 1 μM
# Experimental: Hsp90 binding assays was performed generally according to the procedure described in J. Biomol. […] Hsp90 inhibitors were solubilized in DMSO at a stock concentration of 50 mM. […] Eighty five μl of binding assay buffer (20 mM HEPES, pH-7.5, 50 mM KCl, 5 mM MgCl2, 20 mM sodium molybdate, 0.01% NP-40, 2 mM DTT, and 0.1 mg/ml BSA) was added to the wells of a 96 well black plate placed on ice. […] Next, 10 μl either binding assay buffer alone (control) or human full length Hsp90 protein diluted in the binding assay buffer was added to achieve a final concentration of 50 nM. The plates were incubated at 4° C. on a plate shaker for 24 h. Two μl of 50× GM-FITC (9 nM final) in DMSO was added to all wells and the plate was incubated at ambient temperature for 1 h with shaking. Fluorescence polarization readings were taken in duplicate at excitation and emission wavelengths of 480 nm and 500 nm respectively. Specific binding was calculated by subtracting polarization values in the presence of Hsp90 from those in the absence of Hsp90. To calculate percent inhibition the specific binding values obtained for GA-FITC in the presence of compound were compared to values for GA-FITC in the absence of compound (DMSO only).
# [1] = Table 1, 50 nM Hsp90, 9 nM GM-FITC, read-out: Biochemical Potency IC50
# [2] = Table II, binding affinities ranked by potency
# [3] = Table II, binding affinities ranked by potency, read-out: IC50
Compound,IC50 [1] [nM],Ki [2] [nM],IC50 [3] [nM],inhibition at 10 µM [%],inhibition at 1 µM [%]
"6-Chloro-N4-((4-methoxy-3,5-dimethylpyridin-2-yl)methyl)-N4-(4-methoxyphenethyl)pyrimidine-2,4-diamine [SBI-0640605]",350,88,350,–,–
COc1cc(CNc2cc(Cl)nc(N)n2)cc(OC)c1OC [SBI-0206664],–,> 2500,> 10000,25,–
COc1ccc(CNc2cc(C(F)(F)F)nc(N)n2)c(OC)c1OC [SBI-0630180],–,> 2500,> 10000,4,–
Cc1cc(C)cc(CNc2cc(C(F)(F)F)nc(N)n2)c1 [SBI-0633823],–,> 2500,> 10000,17,–
COc1cc(NCc2cc(OC)c(OC)c(OC)c2)nc(N)n1 [SBI-0633825],> 250000,> 2500,> 10000,–,–
Nc1nc(Cl)cc(NCc2ccc(-c3ccccc3)cc2)n1 [SBI-0633826],–,> 2500,> 10000,21,–
COc1cc(CNc2ccnc(N)n2)cc(OC)c1OC [SBI-0634911],> 250000,> 2500,> 10000,–,–
COc1ccc(CNc2ccnc(N)n2)cc1OC [SBI-0634912],> 250000,> 2500,> 10000,–,–
Nc1nc(Cl)cc(Nc2ccc3c(c2)OCO3)n1 [SBI-0636438],–,> 2500,> 10000,18,–
Nc1nc(Cl)cc(NCc2ccc(Oc3ccccc3)cc2)n1 [SBI-0638967],–,> 2500,> 10000,10,–
"Cc1cnc(CNc2cc(Cl)nc(N)n2)c(C)c1Br [SBI-0639218, N4-((4-Bromo-3,5-dimethylpyridin-2-yl)methyl)-6-chloropyrimidine-2,4-diamine]",–,368,1470,94,44
"COc1c(C)cnc(CN(c2cc(Cl)nc(N)n2)C(C)C)c1C [SBI-0639352, 6-Chloro-N4-isopropyl-N4-((4-methoxy-3,5-dimethylpyridin-2-yl)methyl)pyrimidine-2,4-diamine]",≥ 32000,> 8000,> 32000,–,–
"Cc1cnc(CN(C)c2cc(Cl)nc(N)n2)c(C)c1Cl [SBI-0639899, 6-Chloro-N4-((4-chloro-3,5-dimethylpyridin-2-yl)methyl)-N4-methylpyrimidine-2,4-diamine]",2150,538,2150,–,–
"Cc1cnc(CN(C)c2cc(Cl)nc(N)n2)c(C)c1Br [SBI-0639900, N4-((4-Bromo-3,5-dimethylpyridin-2-yl)methyl)-6-chloro-N4-methylpyrimidine-2,4-diamine]",≥ 32000,> 8000,> 32000,–,–
"COc1c(C)cnc(CN(C(=O)CC(C)(C)C)c2cc(Cl)nc(N)n2)c1C [SBI-0639901, N-(2-amino-6-chloropyrimidin-4-yl)-N-((4-methoxy-3,5-dimethylpyridin-2-yl)methyl)-3,3-dimethylbutanamide]",30000,7500,30000,–,–
COc1c(C)cnc(CN(C(C)=O)c2cc(Cl)nc(N)n2)c1C [SBI-0640492],≥ 32000,> 8000,> 32000,–,–
"CCCCCCN(Cc1ncc(C)c(OC)c1C)c1cc(Cl)nc(N)n1 [SBI-0640609, 6-Chloro-N4-hexyl-N4-((4-methoxy-3,5-dimethylpyridin-2-yl)methyl)pyrimidine-2,4-diamine]",391,98,391,–,–
"Cc1cnc(CN(CCc2ccc(Cl)cc2)c2cc(Cl)nc(N)n2)c(C)c1Cl [SBI-0640610, 6-Chloro-N4-((4-chloro-3,5-dimethylpyridin-2-yl)methyl)-N4-(4-chlorophenethyl)pyrimidine-2,4-diamine]",194,49,194,–,–

# Continued, values first:
IC50 [1] [nM],Ki [2] [nM],IC50 [3] [nM],inhibition at 10 µM [%],inhibition at 1 µM [%],Compound
432,108,432,–,–,"6-Chloro-N4-((4-methoxy-3,5-dimethylpyridin-2-yl)methyl)-N4-(3-methoxyphenethyl)pyrimidine-2,4-diamine [SBI-0640606]"
7500,1000,4000,61,7,COc1c(C)cnc(CNc2cc(Cl)nc(N)n2)c1C [SBI-0206665]
–,> 2500,> 10000,13,–,COc1cccc(CNc2cc(Cl)nc(N)n2)c1 [SBI-0630160]
–,> 2500,> 10000,10,–,COc1cc(CNc2nc(N)nc3[nH]ccc23)cc(OC)c1OC [SBI-0635446]
–,> 2500,> 10000,34,–,Nc1nc(Cl)cc(NCc2ccc(-c3ccc(Cl)cc3F)cc2)n1 [SBI-0638966]
–,> 2500,> 10000,3,–,CCOc1ccc(-c2ccc(CNc3cc(Cl)nc(N)n3)cc2)cc1 [SBI-0638969]
–,> 2500,> 10000,19,4,COc1c(C)cnc(CNc2nc(N)nc3[nH]cnc23)c1C [SBI-0639182]
–,> 2500,> 10000,10,5,COc1cccc2c1ccn2-c1cc(N)c(C(N)=O)c(NC2CCOCC2)c1 [SBI-0639186]
–,300,1200,93,47,"Cc1cnc(CNc2cc(Cl)nc(N)n2)c(C)c1Cl [SBI-0639217, 6-Chloro-N4-((4-chloro-3,5-dimethylpyridin-2-yl)methyl)pyrimidine-2,4-diamine]"
–,213,850,94,57,"COc1c(C)cnc(CN(C)c2cc(Cl)nc(N)n2)c1C [SBI-0639219, 6-Chloro-N4-((4-methoxy-3,5-dimethylpyridin-2-yl)methyl)-N4-methylpyrimidine-2,4-diamine]"
–,110,440,98,66,"Cc1cnc(CNc2cc(Cl)nc(N)n2)c(C)c1I [SBI-0639220, 6-Chloro-N4-((4-iodo-3,5-dimethylpyridin-2-yl)methyl)pyrimidine-2,4-diamine]"
1370,343,1370,–,–,"COc1c(C)cnc(CN(CCCO)c2cc(Cl)nc(N)n2)c1C [SBI-0639349, 3-((2-Amino-6-chloropyrimidin-4-yl)((4-methoxy-3,5-dimethylpyridin-2-yl)methyl)amino)propan-1-ol]"
1100,275,1100,–,–,"CCCN(Cc1ncc(C)c(OC)c1C)c1cc(Cl)nc(N)n1 [SBI-0639350, 6-Chloro-N4-((4-methoxy-3,5-dimethylpyridin-2-yl)methyl)-N4-propylpyrimidine-2,4-diamine]"
2210,553,2210,–,–,"COc1c(C)cnc(CN(Cc2ccccc2)c2cc(Cl)nc(N)n2)c1C [SBI-0639351, N4-Benzyl-6-chloro-N4-((4-methoxy-3,5-dimethylpyridin-2-yl)methyl)pyrimidine-2,4-diamine]"
719,180,720,–,–,"CCCCN(Cc1ncc(C)c(OC)c1C)c1cc(Cl)nc(N)n1 [SBI-0639354, N4-butyl-6-chloro-N4-((4-methoxy-3,5-dimethylpyridin-2-yl)methyl)pyrimidine-2,4-diamine]"
2870,718,2870,–,–,"C=CCN(Cc1ncc(C)c(OC)c1C)c1cc(Cl)nc(N)n1 [SBI-0639355, N4-Allyl-6-chloro-N4-((4-methoxy-3,5-dimethylpyridin-2-yl)methyl)pyrimidine-2,4-diamine]"
≥ 32000,> 8000,> 32000,–,–,"COc1c(C)cnc(CN(C(=O)CCCCl)c2cc(Cl)nc(N)n2)c1C [SBI-0639902, N-(2-Amino-6-chloropyrimidin-4-yl)-4-chloro-N-((4-methoxy-3,5-dimethylpyridin-2-yl)methyl)butanamide]"
368,92,368,–,–,"COc1c(C)cnc(CN(CCc2ccc3c(c2)OCO3)c2cc(Cl)nc(N)n2)c1C [SBI-0640607, N4-(2-(Benzo[d][1,3]dioxol-5-yl)ethyl)-6-chloro-N4-((4-methoxy-3,5-dimethylpyridin-2-yl)methyl)pyrimidine-2,4-diamine]"
311,78,311,–,–,"COc1c(C)cnc(CN(CCc2ccc(Cl)cc2)c2cc(Cl)nc(N)n2)c1C [SBI-0640608, 6-Chloro-N4-(4-chlorophenethyl)-N4-((4-methoxy-3,5-dimethylpyridin-2-yl)methyl)pyrimidine-2,4-diamine]"
1690,423,1690,–,–,"COc1c(C)cnc(CN(CCN2CCOCC2)c2cc(Cl)nc(N)n2)c1C [SBI-0640611, 6-Chloro-N4-((4-methoxy-3,5-dimethylpyridin-2-yl)methyl)-N4-(2-morpholinoethyl)pyrimidine-2,4-diamine]"
